Results published in patent EP1382597A2, “Steroid receptor modulator compounds and methods” (LIGAND PHARMACEUTICALS, INC., priority 1994, dated 1996).
Like-named read-outs stand apart in the source and are kept apart here.

Experiments:
PR = assay: Uterine wet weight assay (PR agonist effectiveness); format: in vivo, Sprague-Dawely rats; conditions: for effect on uterine wet weight: co-administered with estrone, doses of 0.3 mg, 1.0 mg, and 3.0 mg/rat
Source text: J. Obstet. […] R.I. Dorfman, Academic Press, New York, New York, pp101-130 (1969), the disclosures of which are herein incorporated by reference. Four to five week old, ovariectomized, Sprague-Dawely rats (Harlan-Sprague-Dawely, Indianapolis, IN) were obtained 1 week after surgery and allowed to acclimate for an additional week after shipment.

MR = biological target: T1, MR (Homo sapiens, UniProt P08235); assay: Co-transfection assay, MR antagonist activity; format: cell-based; conditions: for Emax: CV-1, read-out: MR Antagonist CV-1 Cells Efficacy (%)
T1 construct: expressed in transfected cells; host or cells: CV-1 cells, transient transfection
T1 sequence (P08235 1-984): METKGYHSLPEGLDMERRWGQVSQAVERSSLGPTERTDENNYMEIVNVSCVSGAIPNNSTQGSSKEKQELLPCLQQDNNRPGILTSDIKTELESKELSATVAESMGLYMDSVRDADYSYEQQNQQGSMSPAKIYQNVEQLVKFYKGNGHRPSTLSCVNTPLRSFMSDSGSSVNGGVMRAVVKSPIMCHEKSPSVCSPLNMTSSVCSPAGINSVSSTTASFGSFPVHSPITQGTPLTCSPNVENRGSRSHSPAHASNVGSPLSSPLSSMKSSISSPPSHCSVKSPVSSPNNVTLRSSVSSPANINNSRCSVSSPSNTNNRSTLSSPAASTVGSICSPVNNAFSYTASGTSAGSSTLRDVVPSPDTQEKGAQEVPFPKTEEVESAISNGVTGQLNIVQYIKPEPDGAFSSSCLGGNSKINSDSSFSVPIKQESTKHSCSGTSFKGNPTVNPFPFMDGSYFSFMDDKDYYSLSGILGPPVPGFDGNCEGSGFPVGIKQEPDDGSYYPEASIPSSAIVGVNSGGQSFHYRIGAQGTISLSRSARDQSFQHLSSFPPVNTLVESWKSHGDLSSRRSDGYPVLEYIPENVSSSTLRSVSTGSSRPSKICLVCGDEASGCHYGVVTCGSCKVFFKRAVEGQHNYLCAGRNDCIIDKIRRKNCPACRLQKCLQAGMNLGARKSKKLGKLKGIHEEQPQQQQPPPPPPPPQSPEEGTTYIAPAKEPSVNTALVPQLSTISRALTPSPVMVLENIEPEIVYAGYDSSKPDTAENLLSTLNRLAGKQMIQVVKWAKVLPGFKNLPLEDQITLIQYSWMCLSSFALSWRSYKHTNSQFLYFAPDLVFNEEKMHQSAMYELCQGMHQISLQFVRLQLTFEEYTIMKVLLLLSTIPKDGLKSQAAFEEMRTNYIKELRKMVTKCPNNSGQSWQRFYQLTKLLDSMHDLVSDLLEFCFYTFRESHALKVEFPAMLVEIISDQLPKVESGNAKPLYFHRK

GR = biological target: T2, GR (Homo sapiens, UniProt P04150); assay: Co-transfection assay, GR antagonist activity; format: cell-based; conditions: for Emax: CV-1, read-out: GR Antagonist CV-1 Cells Efficacy (%)
T2 construct: expressed in transfected cells; host or cells: CV-1 cells, transient transfection
T2 sequence (P04150 1-777): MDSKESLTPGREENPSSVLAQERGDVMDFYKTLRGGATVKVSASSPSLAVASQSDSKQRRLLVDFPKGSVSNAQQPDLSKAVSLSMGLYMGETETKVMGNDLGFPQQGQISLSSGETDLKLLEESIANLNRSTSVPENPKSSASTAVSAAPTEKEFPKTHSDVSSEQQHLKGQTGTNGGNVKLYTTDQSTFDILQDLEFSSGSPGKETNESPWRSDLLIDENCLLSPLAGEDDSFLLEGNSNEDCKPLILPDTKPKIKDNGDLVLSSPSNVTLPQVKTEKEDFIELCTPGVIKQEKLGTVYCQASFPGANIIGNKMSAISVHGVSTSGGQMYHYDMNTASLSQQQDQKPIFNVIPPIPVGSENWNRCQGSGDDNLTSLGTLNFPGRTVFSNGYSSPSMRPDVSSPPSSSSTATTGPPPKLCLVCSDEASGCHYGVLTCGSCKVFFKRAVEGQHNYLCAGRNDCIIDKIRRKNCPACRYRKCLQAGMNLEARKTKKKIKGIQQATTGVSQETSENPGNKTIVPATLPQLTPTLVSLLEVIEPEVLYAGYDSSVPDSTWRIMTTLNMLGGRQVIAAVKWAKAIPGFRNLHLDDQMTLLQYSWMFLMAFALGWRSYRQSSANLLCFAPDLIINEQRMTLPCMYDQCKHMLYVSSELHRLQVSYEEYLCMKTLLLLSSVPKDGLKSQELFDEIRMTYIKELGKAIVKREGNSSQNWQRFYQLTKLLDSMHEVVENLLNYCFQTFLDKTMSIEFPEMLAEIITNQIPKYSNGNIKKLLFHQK

ER [1] = biological target: T3, ER (Homo sapiens, UniProt P03372); assay: Co-transfection assay, ER agonist activity; format: cell-based; conditions: for Emax: CV-1, read-out: ER Agonist CV-1 Cells Efficacy (%)
T3 construct: expressed in transfected cells; host or cells: CV-1 cells, transient transfection, with MTV-ERE5-LUC reporter

ER [2] = biological target: T3, ER; assay: Co-transfection assay, ER antagonist activity; format: cell-based; conditions: for ER Antagonist CV-1 Cells Efficacy (%): percent maximal inhibition, estradiol at its EC50
human PR-B [3] = biological target: T4, human PR-B (Homo sapiens, UniProt P06401); assay: Co-transfection assay, PR agonist activity; format: cell-based; conditions: for Emax: CV-1, read-out: PR Agonist CV-1 Cells Efficacy (%);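 for all read-outs here: CV-1 cells (African green monkey kidney) co-transfected with receptor plasmid and hormone-responsive firefly luciferase reporter, agonism read as compound-dependent rise in luciferase signal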
T4 construct: expressed in transfected cells; host or cells: CV-1 cells (African green monkey kidney fibroblasts), transient transfection
T4 sequence (P06401 1-933): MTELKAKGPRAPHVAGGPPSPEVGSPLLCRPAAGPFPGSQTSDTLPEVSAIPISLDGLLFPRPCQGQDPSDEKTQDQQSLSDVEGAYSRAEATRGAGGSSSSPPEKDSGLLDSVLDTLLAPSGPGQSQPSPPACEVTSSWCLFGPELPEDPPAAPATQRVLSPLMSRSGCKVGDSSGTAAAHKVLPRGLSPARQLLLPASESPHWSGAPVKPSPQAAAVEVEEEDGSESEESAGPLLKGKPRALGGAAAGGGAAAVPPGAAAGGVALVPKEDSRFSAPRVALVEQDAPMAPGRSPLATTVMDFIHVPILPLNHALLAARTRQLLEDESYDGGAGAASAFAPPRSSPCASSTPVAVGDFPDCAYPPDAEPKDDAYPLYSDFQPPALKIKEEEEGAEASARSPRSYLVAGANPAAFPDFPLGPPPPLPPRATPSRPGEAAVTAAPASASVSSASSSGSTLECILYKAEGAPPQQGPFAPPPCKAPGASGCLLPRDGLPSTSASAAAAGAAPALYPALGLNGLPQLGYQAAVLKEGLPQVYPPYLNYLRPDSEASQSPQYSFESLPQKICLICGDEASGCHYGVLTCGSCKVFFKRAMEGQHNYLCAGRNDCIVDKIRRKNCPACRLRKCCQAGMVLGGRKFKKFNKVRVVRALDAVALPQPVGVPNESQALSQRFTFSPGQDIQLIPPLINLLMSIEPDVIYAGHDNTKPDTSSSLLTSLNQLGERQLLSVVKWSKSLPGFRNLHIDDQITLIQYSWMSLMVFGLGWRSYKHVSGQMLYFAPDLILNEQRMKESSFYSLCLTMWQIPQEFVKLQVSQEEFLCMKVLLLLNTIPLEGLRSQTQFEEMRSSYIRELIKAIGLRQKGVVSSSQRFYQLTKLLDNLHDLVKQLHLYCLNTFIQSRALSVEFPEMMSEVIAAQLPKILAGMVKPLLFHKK

human PR-B [4] = biological target: T4, human PR-B; assay: Co-transfection assay, PR antagonist activity; format: cell-based; conditions: for Emax: CV-1, read-out: PR Antagonist CV-1 Cells Efficacy (%);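 for all read-outs here: monkey kidney fibroblasts co-transfected with receptor expression plasmid and hormone-responsive luciferase reporter, antagonism read as reduced luciferase signal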
AR [5] = biological target: T5, AR (Homo sapiens, UniProt P10275); assay: Co-transfection assay, AR antagonist activity; format: cell-based
T5 construct: expressed in transfected cells; host or cells: CV-1 cells, transient transfection

AR [6] = biological target: T5, AR; assay: Co-transfection assay, AR agonist activity; format: cell-based; conditions: CV-1, read-out: AR Agonist CV-1 Cells Efficacy (%)

T5 sequence (P10275 whole entry): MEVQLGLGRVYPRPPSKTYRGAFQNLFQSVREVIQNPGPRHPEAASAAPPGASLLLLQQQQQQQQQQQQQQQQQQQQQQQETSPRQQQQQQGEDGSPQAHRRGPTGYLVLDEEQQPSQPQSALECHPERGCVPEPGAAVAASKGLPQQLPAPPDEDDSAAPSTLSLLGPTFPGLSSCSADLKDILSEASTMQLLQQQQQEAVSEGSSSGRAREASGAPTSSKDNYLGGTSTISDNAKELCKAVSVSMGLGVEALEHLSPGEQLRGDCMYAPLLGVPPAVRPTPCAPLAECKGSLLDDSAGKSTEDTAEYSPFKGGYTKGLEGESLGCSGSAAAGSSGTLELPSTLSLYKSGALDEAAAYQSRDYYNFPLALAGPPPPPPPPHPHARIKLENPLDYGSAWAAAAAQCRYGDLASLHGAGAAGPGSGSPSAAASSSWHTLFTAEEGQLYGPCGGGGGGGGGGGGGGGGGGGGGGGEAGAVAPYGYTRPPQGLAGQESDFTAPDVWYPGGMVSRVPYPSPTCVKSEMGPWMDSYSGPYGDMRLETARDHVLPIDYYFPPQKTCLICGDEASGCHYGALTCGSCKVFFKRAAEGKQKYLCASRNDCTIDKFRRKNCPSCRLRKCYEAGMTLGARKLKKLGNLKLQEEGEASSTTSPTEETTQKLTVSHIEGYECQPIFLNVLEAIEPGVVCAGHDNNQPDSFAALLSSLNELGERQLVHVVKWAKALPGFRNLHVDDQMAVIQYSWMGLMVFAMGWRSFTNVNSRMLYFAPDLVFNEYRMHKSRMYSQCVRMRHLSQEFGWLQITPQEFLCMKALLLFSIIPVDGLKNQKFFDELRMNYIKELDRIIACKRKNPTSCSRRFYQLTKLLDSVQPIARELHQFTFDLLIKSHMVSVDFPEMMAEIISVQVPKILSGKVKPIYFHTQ
T3 sequence (P03372 whole entry): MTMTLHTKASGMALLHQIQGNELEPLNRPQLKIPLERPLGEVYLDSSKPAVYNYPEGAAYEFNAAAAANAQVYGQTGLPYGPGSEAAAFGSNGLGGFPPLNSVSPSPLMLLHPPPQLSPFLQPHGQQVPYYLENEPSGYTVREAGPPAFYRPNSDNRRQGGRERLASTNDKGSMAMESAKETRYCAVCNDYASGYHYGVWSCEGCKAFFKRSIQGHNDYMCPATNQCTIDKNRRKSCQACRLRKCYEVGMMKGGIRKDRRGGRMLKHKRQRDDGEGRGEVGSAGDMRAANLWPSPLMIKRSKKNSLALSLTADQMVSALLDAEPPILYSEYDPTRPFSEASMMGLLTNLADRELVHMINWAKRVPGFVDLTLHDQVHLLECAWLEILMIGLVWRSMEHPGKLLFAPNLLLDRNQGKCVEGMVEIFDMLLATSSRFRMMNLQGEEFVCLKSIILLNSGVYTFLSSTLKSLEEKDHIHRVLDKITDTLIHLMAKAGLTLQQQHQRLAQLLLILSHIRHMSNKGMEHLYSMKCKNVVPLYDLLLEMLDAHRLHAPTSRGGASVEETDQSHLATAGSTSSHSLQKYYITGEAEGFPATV

CCCCC1Oc2ccc(F)cc2-c2ccc3c(c21)C(C)=CC(C)(C)N3 (racemic) [Compound 210, (R/S)-5-Butyl-9-fluoro-1,2-dihydro-2,2,4-trimethyl-5H-chromeno[3,4-f]quinoline]
effect on uterine wet weight (PR): decreased by approximately half

CC(=O)O[C@]1(C(C)=O)CC[C@H]2[C@@H]3C[C@H](C)C4=CC(=O)CC[C@]4(C)[C@H]3CC[C@@]21C [MPA, medroxyprogesterone acetate, reference compound]
effect on uterine wet weight (PR): significantly decreased the uterine wet weight

CC1=CC(C)(C)Nc2ccc3c(c21)C(c1ccc(C)cc1)Oc1ccccc1-3 (racemic) [Compound 167, (R/S)-1,2-Dihydro-2,2,4-trimethyl-5-(4-methylphenyl)-5H-chromeno[3,4-f]quinoline]
Emax (MR): 61% | Emax (GR): 96%

CCCCN(C)C(=O)CCCCCCCCCC[C@@H]1Cc2cc(O)ccc2[C@H]2CC[C@]3(C)[C@@H](O)CC[C@H]3[C@H]12 [ICI 164, N-butyl-3,17-dihydroxy-N-methyl-(7-alpha, 17-beta)-estra-1,3,5(10)-triene-7-undecanamide, reference compound]
Emax (ER [1]): < 20% | ER Antagonist CV-1 Cells Efficacy (%) (ER [2]): 99%

CC1=CC(C)(C)Nc2ccc3c(c21)C(c1ccccc1)Oc1ccccc1-3 (racemic) [Compound 161, (R/S)-1,2-Dihydro-2,2,4-trimethyl-5-phenyl-5H-chromeno[3,4-f]quinoline]
Emax (human PR-B [3]): 47% | Emax (human PR-B [4]): 75% | Emax (MR): 58% | Emax (GR): 97%

8-Fluoro-1,2-dihydro-2,2,4-trimethylindeno[1,2-g]quinoline [Compound 124]
EC50 (ER [1]; Table 5 overall potency, co-transfection assay, read-out: ER Potency Agon): 2100 nM | IC50 (MR; Table 5 overall potency, co-transfection assay, read-out: MR Potency Antag): > 10000 nM | IC50 (ER [2]; Table 5 overall potency, co-transfection assay, read-out: ER Potency Antag): > 10000 nM | IC50 (GR; Table 5 overall potency, co-transfection assay, read-out: GR Potency Antag): > 10000 nM

CC1=CC(C)(C)Nc2ccc3c(c21)C(c1ccsc1)Oc1ccccc1-3 (racemic) [Compound 170, (R/S)-1,2-Dihydro-2,2,4-trimethyl-5-(thiophen-3-yl)-5H-chromeno[3,4-f]quinoline]
EC50 (human PR-B [3]): 73 nM | IC50 (human PR-B [4]): 145 nM | Emax (MR): 84% | IC50 (AR [5]): 290 nM | IC50 (ER [2]): 580 nM | ER Antagonist CV-1 Cells Efficacy (%) (ER [2]): 78% | Emax (GR): 94%

CC#C[C@]1(O)CC[C@H]2[C@@H]3CCC4=CC(=O)CCC4=C3[C@@H](c3ccc(N(C)C)cc3)C[C@@]21C [RU486, (11beta, 17beta)-11-[4-(dimethylamino)phenyl]-17-hydroxy-17-(1-propynyl)estra-4,9-dien-3-one, reference compound]
Emax (human PR-B [3]): < 20% | Emax (MR): 77% | Emax (GR): 100%

CC1=CC(C)(C)Nc2ccc3c(c21)C(c1cccc(C(F)(F)F)c1)Oc1ccccc1-3 (racemic) [Compound 195, (R/S) 1,2-Dihydro-2,2,4-trimethyl-5-[3-(trifluoromethyl)phenyl]-5H-chromeno[3,4-f]quinoline]
Emax (ER [1]): 90% | Emax (human PR-B [3]): 89% | Emax (human PR-B [4]): < 20% | Emax (MR): 47% | IC50 (AR [5]): 470 nM | IC50 (ER [2]): 4410 nM | ER Antagonist CV-1 Cells Efficacy (%) (ER [2]): 68% | Emax (GR): 96%

C=C1CC(C)(C)Nc2ccc3c(c21)C(c1cccc(F)c1)Oc1ccccc1-3 (racemic) [Compound 192, (R/S)-5-(3-Fluorophenyl)-1,2,3,4-tetrahydro-2,2-dimethyl-4-methylidene-5H-chromeno[3,4-f]quinoline]
EC50 (ER [1]): > 10000 nM | Emax (ER [1]): < 20% | EC50 (human PR-B [3]): > 10000 nM | IC50 (human PR-B [4]): 89 nM | Emax (MR): 70% | IC50 (AR [5]): 79 nM | IC50 (ER [2]): 195 nM | ER Antagonist CV-1 Cells Efficacy (%) (ER [2]): 80% | Emax (GR): 81%

CC1=CC(C)(C)N(C)c2cc3oc(=O)cc(C(F)(F)F)c3cc21 [Compound 265, 1,2-Dihydro-1,2,2,4-tetramethyl-6-trifluoromethyl-8-pyranono[5,6-g]quinoline]
Emax (AR [6]): < 20% | Emax (AR [5]; CV-1, read-out: AR Antagonist CV-1 Cells Efficacy (%)): 78%

CC(=O)S[C@@H]1CC2=CC(=O)CC[C@]2(C)[C@H]2CC[C@@]3(C)[C@@H](CC[C@@]34CCC(=O)O4)[C@H]12 [Spir, 7-alpha-[acetylthio]-17-alpha-hydroxy-3-oxopregn-4-ene-21-carboxylic acid gamma-lactone, reference compound]
Emax (MR): 96% | Emax (GR): 80%

CC(C)(O)C(=O)Nc1ccc([N+](=O)[O-])c(C(F)(F)F)c1 [Flut]
EC50 (ER [1]): > 10000 nM | IC50 (ER [2]): > 10000 nM

C[C@]12CC[C@@H]3c4ccc(O)cc4CC[C@H]3[C@@H]1CCC2=O [estrone, reference compound]
Mean Uterine Wet Weight (PR; estrone 10 µg/day subcutaneous alone, three days, ovariectomized rats): 205 mg | increase of uterine wet weight over control treated animals (PR; estrone alone): 4 fold
